ChEMBL document CHEMBL1158771, “Glaciapyrroles A, B, and C, pyrrolosesquiterpenes from a Streptomyces sp. isolated from an Alaskan marine sediment” (J Nat Prod, 2005)

How the values were obtained:
[1] = tested on: HT-29; assay: Cytotoxicity against human HT-29 cells assessed as reduction of resazurin after 48 hrs by fluorimetry; type: functional, cell-based; conditions: HT-29, 48 h
[2] = tested on: B16-F10; assay: Cytotoxicity against mouse B16F10 cells assessed as reduction of resazurin after 48 hrs by fluorimetry; type: functional, cell-based; conditions: B16-F10, 48 h

SMILES: CC(=C/C(=O)c1ccc[nH]1)/C=C/[C@H](O)[C@@]1(C)CC[C@H](C(C)(C)O)O1 [GLYCIAPYRROLE A]
- IC50 [1]: 180 µM
- IC50 [2]: 180 µM
